Experimental data as given in patent US9365576B2, “Pyrrolopyrrolidinone compounds” (Novartis AG, priority 2012, dated 2016).

Biological target: human MDM2 protein (amino acids 2-188) (Homo sapiens (Human), UniProt Q00987)
Assay: TR-FRET assay, p53-MDM2 Assay 2 (modified)
Type: binding
Details: not given
In short: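 IC50 values were curve-fitted from the time-resolved 665/620 nm emission ratio after 340 nm excitation. The assay combined 0.625 nM europium-streptavidin donor with 1.25 nM C-terminally biotinylated MDM2 2–188 (15 min, RT), followed by 15 min with 10 nM Cy5-labeled p53 18–26 acceptor peptide.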

Chain of human MDM2 protein (amino acids 2-188) (Q00987 2-188): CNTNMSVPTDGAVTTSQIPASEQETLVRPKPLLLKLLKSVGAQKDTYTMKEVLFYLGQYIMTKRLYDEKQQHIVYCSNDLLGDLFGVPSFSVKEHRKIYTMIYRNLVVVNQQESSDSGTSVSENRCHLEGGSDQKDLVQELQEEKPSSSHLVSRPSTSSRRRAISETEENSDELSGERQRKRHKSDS

Row | SMILES | IC50
1 | COc1ncccc1-c1cc2c(n1C(C)C)C(c1ccc(Cl)cc1)N(c1cc(Cl)ccc1C)C2=O (centres unmarked) [Example 12, 5-(5-Chloro-2-methyl-phenyl)-6-(4-chloro-phenyl)-1-isopropyl-2-(2-methoxy-pyridin-3-yl)-5,6-dihydro-1H-pyrrolo[3,4-b]pyrrol-4-one] | 0.49 nM

Same assay, conditions: TR-FRET; 0.1 nM MDM2, 0.1 nM Europium labeled streptavidin, Tecan genios Pro reader; read-out: IC50 p53-MDM2 Assay 2

Row | SMILES | IC50
2 | COc1nc(N(C)C)ncc1-c1cc2c(n1C(C)C)[C@H](c1ccc(C#N)cc1)N(c1cc(Cl)c(=O)n(C)c1)C2=O [Example 232, (S)-4-(5-(5-Chloro-1-methyl-6-oxo-1,6-dihydropyridin-3-yl)-2-(2-(dimethylamino)-4-methoxypyrimidin-5-yl)-1-isopropyl-4-oxo-1,4,5,6-tetrahydropyrrolo[3,4-b]pyrrol-6-yl)benzonitrile] | 0.069 nM
3 | COc1nc(N(C)C)ncc1-c1cc2c(n1C(C)C)C(c1ccc(Cl)cn1)N(c1cccc(Cl)c1F)C2=O (centres unmarked) [Example 234, 5-(3-Chloro-2-fluorophenyl)-6-(5-chloropyridin-2-yl)-2-(2-(dimethylamino)-4-methoxypyrimidin-5-yl)-1-isopropyl-5,6-dihydropyrrolo[3,4-b]pyrrol-4(1H)-one] | 0.657 nM
4 | COc1ccccc1-c1cc2c(n1C(C)C)C(c1ccc(Cl)cc1)N([C@H]1CC[C@H](O)CC1)C2=O (stereo partly drawn) [Example 63, 6-(4-Chloro-phenyl)-5-(trans-4-hydroxy-cyclohexyl)-1-isopropyl-2-(2-methoxy-phenyl)-5,6-dihydro-1H-pyrrolo[3,4-b]pyrrol-4-one] | 8.13 nM
5 | COc1ncc(-c2cc3c(n2C(C)C)C(c2ccc(Cl)cc2)N([C@H]2CC[C@H](O)CC2)C3=O)c(OC)n1 (stereo partly drawn) [Example 66, 6-(4-Chloro-phenyl)-2-(2,4-dimethoxy-pyrimidin-5-yl)-5-(trans-4-hydroxy-cyclohexyl)-1-isopropyl-5,6-dihydro-1H-pyrrolo[3,4-b]pyrrol-4-one] | 1.39 nM
6 | COc1ncc(-c2cc3c(n2C(C)C)C(c2ccc(C#N)c(F)c2)N(c2cc(Cl)c[nH]c2=O)C3=O)c(OC)n1 (centres unmarked) [Example 200, 4-[5-(5-Chloro-2-oxo-1,2-dihydro-pyridin-3-yl)-2-(2,4-dimethoxy-pyrimidin-5-yl)-1-isopropyl-4-oxo-1,4,5,6-tetrahydro-pyrrolo[3,4-b]pyrrol-6-yl]-2-fluoro-benzonitrile] | 0.37 nM
7 | COc1nc(N)ncc1-c1cc2c(n1C(C)C)C(c1ccc(Cl)cc1)N(c1cc(Cl)ccc1C)C2=O (centres unmarked) [Example 25, 2-(2-Amino-4-methoxy-pyrimidin-5-yl)-5-(5-chloro-2-methyl-phenyl)-6-(4-chloro-phenyl)-1-isopropyl-5,6-dihydro-1H-pyrrolo[3,4-b]pyrrol-4-one] | 0.263 nM
8 | COc1nc(N)ncc1-c1cc2c(n1C(C)C)C(c1ccc(C#N)cc1)N(c1cccc(Cl)c1F)C2=O (centres unmarked) [Example 41, 4-[2-(2-Amino-4-methoxy-pyrimidin-5-yl)-5-(3-chloro-2-fluoro-phenyl)-1-isopropyl-4-oxo-1,4,5,6-tetrahydro-pyrrolo[3,4-b]pyrrol-6-yl]-benzonitrile] | 0.349 nM
9 | COc1nc(N(C)C)ncc1-c1cc2c(n1C(C)C)C(c1ccc(Cl)cc1)N(c1cn(C)nc1C)C2=O (centres unmarked) [Example 182, 6-(4-Chloro-phenyl)-2-(2-dimethylamino-4-methoxy-pyrimidin-5-yl)-5-(1,3-dimethyl-1H-pyrazol-4-yl)-1-isopropyl-5,6-dihydro-1H-pyrrolo[3,4-b]pyrrol-4-one] | 0.659 nM
10 | COc1cn(C)c(=O)cc1-c1cc2c(n1C(C)C)C(c1ccc(Cl)cc1)N(c1cc(Cl)cnc1OC)C2=O (centres unmarked) [Example 205, 5-(5-Chloro-2-methoxy-pyridin-3-yl)-6-(4-chloro-phenyl)-1-isopropyl-2-(5-methoxy-1-methyl-2-oxo-1,2-dihydro-pyridin-4-yl)-5,6-dihydro-1H-pyrrolo[3,4-b]pyrrol-4-one] | 0.198 nM
11 | COc1ncc(-c2cc3c(n2C(C)C)C(c2ccc(C#N)c(F)c2)N(c2cc(Cl)c(=O)n(C)c2)C3=O)c(OC)n1 (centres unmarked) [Example 195, 4-[5-(5-Chloro-1-methyl-6-oxo-1,6-dihydro-pyridin-3-yl)-2-(2,4-dimethoxy-pyrimidin-5-yl)-1-isopropyl-4-oxo-1,4,5,6-tetrahydro-pyrrolo[3,4-b]pyrrol-6-yl]-2-fluoro-benzonitrile] | 0.252 nM
12 | COc1ccccc1-c1cc2c(n1C(C)C)C(C)(c1ccc(Cl)cc1)N(c1cc(Cl)ccc1C)C2=O (centres unmarked) [Example 116, 5-(5-Chloro-2-methyl-phenyl)-6-(4-chloro-phenyl)-1-isopropyl-2-(2-methoxy-phenyl)-6-methyl-5,6-dihydro-1H-pyrrolo[3,4-b]pyrrol-4-one] | 0.496 nM
13 | COc1ccc(C(=O)O)cc1-c1cc2c(n1C(C)C)C(c1ccc(Cl)cc1)N(c1ccc(F)c(Cl)c1)C2=O (centres unmarked) [Example 56, 3-[5-(3-Chloro-4-fluoro-phenyl)-6-(4-chloro-phenyl)-1-isopropyl-4-oxo-1,4,5,6-tetrahydro-pyrrolo[3,4-b]pyrrol-2-yl]-4-methoxy-benzoic acid] | 0.351 nM
14 | COc1ccccc1-c1cc2c(n1C(C)C)C(c1ccc(Cl)cc1C)N(c1cc(Cl)c(=O)n(C)c1)C2=O (centres unmarked) [Example 144, 5-(5-Chloro-1-methyl-6-oxo-1,6-dihydro-pyridin-3-yl)-6-(4-chloro-2-methyl-phenyl)-1-isopropyl-2-(2-methoxy-phenyl)-5,6-dihydro-1H-pyrrolo[3,4-b]pyrrol-4-one] | 0.554 nM
15 | COc1nc(N(C)C)ncc1-c1cc2c(n1C(C)C)C(c1ccc(Cl)cc1)N([C@H]1CC[C@H](O)CC1)C2=O (stereo partly drawn) [Example 69, 6-(4-Chloro-phenyl)-2-(2-dimethylamino-4-methoxy-pyrimidin-5-yl)-5-(trans-4-hydroxy-cyclohexyl)-1-isopropyl-5,6-dihydro-1H-pyrrolo[3,4-b]pyrrol-4-one] | 0.777 nM
16 | COc1nc(N(C)C)ncc1-c1cc2c(n1C(C)C)C(c1ccc(Cl)cc1)N(c1cc(Cl)c[nH]c1=O)C2=O (centres unmarked) [Example 123, 5-(5-Chloro-2-oxo-1,2-dihydro-pyridin-3-yl)-6-(4-chloro-phenyl)-2-(2-dimethylamino-4-methoxy-pyrimidin-5-yl)-1-isopropyl-5,6-dihydro-1H-pyrrolo[3,4-b]pyrrol-4-one] | 0.106 nM
17 | COc1ncc(-c2c(C(=O)O)c3c(n2C(C)C)C(c2ccc(Cl)cc2)N(c2cc(Cl)c(=O)n(C)c2)C3=O)c(OC)n1 (centres unmarked) [Example 221, 5-(5-Chloro-1-methyl-6-oxo-1,6-dihydro-pyridin-3-yl)-6-(4-chloro-phenyl)-2-(2,4-dimethoxy-pyrimidin-5-yl)-1-isopropyl-4-oxo-1,4,5,6-tetrahydro-pyrrolo[3,4-b]pyrrole-3-carboxylic acid] | 0.14 nM
18 | COc1ncc(-c2cc3c(n2C(C)C)C(c2ccc(Cl)cc2)N(c2cc(C)cn(C)c2=O)C3=O)c(OC)n1 (centres unmarked) [Example 239, 6-(4-Chlorophenyl-1)-2-(2,4-dimethoxypyrimidin-5-yl)-5-(1,5-dimethyl-2-oxo-1,2-dihydropyridin-3-yl)-1-isopropyl-5,6-dihydropyrrolo[3,4-b]pyrrol-4(1H)-one] | 1.16 nM
19 | COc1ccc(C(=O)N(C)C)cc1-c1cc2c(n1C(C)C)[C@H](c1ccc(Cl)cc1)N(c1cc(Cl)ccc1C)C2=O [Example 20, 3-[(S)-5-(5-Chloro-2-methyl-phenyl)-6-(4-chloro-phenyl)-1-isopropyl-4-oxo-1,4,5,6-tetrahydro-pyrrolo[3,4-b]pyrrol-2-yl]-4-methoxy-N,N-dimethyl-benzamide] | 0.075 nM
20 | COc1nc(N)ncc1-c1cc2c(n1C(C)C)[C@H](c1ccc(C#N)cc1)N(c1cccc(Cl)c1F)C2=O [Example 154, 4-[(S)-2-(2-Amino-4-methoxy-pyrimidin-5-yl)-5-(3-chloro-2-fluoro-phenyl)-1-isopropyl-4-oxo-1,4,5,6-tetrahydro-pyrrolo[3,4-b]pyrrol-6-yl]-benzonitrile] | 0.328 nM
21 | COc1nc(N(C)C)ncc1-c1cc2c(n1C(C)C)C(c1ccc(Cl)cc1)N(c1cc(Cl)c(=O)n(C)c1)C2=O (centres unmarked) [Example 52, 5-(5-Chloro-1-methyl-6-oxo-1,6-dihydro-pyridin-3-yl)-6-(4-chloro-phenyl)-2-(2-dimethylamino-4-methoxy-pyrimidin-5-yl)-1-isopropyl-5,6-dihydro-1H-pyrrolo[3,4-b]pyrrol-4-one] | 0.137 nM
22 | COc1ncc(-c2cc3c(n2C(C)C)C(c2ccc(Cl)cc2)N(c2cc(Cl)ccc2C#N)C3=O)c(OC)n1 (centres unmarked) [Example 98, 4-Chloro-2-[6-(4-chloro-phenyl)-2-(2,4-dimethoxy-pyrimidin-5-yl)-1-isopropyl-4-oxo-4,6-dihydro-1H-pyrrolo[3,4-b]pyrrol-5-yl]-benzonitrile] | 0.316 nM
23 | COc1ncc(-c2cc3c(n2C(C)C)C(c2ccc(Cl)cc2C)N(c2cc(Cl)c(=O)n(C)c2)C3=O)c(OC)n1 (centres unmarked) [Example 146, 5-(5-Chloro-1-methyl-6-oxo-1,6-dihydro-pyridin-3-yl)-6-(4-chloro-2-methyl-phenyl)-2-(2,4-dimethoxy-pyrimidin-5-yl)-1-isopropyl-5,6-dihydro-1H-pyrrolo[3,4-b]pyrrol-4-one] | 0.216 nM
24 | COc1nc(N)ncc1-c1cc2c(n1C(C)C)[C@H](c1ccc(C#N)cc1)N(c1ccc(F)c(Cl)c1)C2=O [Example 171, 4-[(S)-2-(2-Amino-4-methoxy-pyrimidin-5-yl)-5-(3-chloro-4-fluoro-phenyl)-1-isopropyl-4-oxo-1,4,5,6-tetrahydro-pyrrolo[3,4-b]pyrrol-6-yl]-benzonitrile] | 0.699 nM
25 | COc1ncc(-c2cc3c(n2C(C)C)C(c2ccc(Cl)cc2)N(c2c[nH]c(=O)c(Cl)c2)C3=O)c(OC)n1 (centres unmarked) [Example 139, 5-(5-Chloro-6-oxo-1,6-dihydro-pyridin-3-yl)-6-(4-chloro-phenyl)-2-(2,4-dimethoxy-pyrimidin-5-yl)-1-isopropyl-5,6-dihydro-1H-pyrrolo[3,4-b]pyrrol-4-one] | 0.266 nM
26 | CNC(=O)c1ccc(OC)c(-c2cc3c(n2C(C)C)C(c2ccc(Cl)cc2)N(c2cc(Cl)ccc2C#N)C3=O)c1 (centres unmarked) [Example 97, 3-[5-(5-Chloro-2-cyano-phenyl)-6-(4-chloro-phenyl)-1-isopropyl-4-oxo-1,4,5,6-tetrahydro-pyrrolo[3,4-b]pyrrol-2-yl]-4-methoxy-N-methyl-benzamide] | 0.378 nM
